According to patent US11046651B2, “Piperazine substituted azapine derivatives and uses thereof” (Alairion, Inc., priority 2019, dated 2021):
Like-named read-outs stand apart in the source and are kept apart here.

Experiments:
[1] = Human clearance and half-life projections (allometric scaling from monkey clearance)
Experimental: (§1) The biological activity of the compounds of the present disclosure may be determined utilizing projected human clearance (CL) and half-life in humans. An allometric scaling method, using a single species scaling from monkey clearance was used to project clearance. Human volume of distribution (Vd) was projected from animal Vd, adjusted for differences in plasma protein binding and assuming similar unbound Vd across species. Human half-life (T1/2) was calculated based on a one-compartmental model, using a relationship of T1/2=0.693×(predicted Vd/predicted CL).
as §1, with “An” for “The biological activity of the compounds of the present disclosure may be determined utilizing projected human clearance (CL) and half-life in humans. An”

5-HT2C = 5-HT2C (Homo sapiens (Human), UniProt P28335); test: 5-HT2C binding assay ([3H]-Mesulergine, HEK293 membranes)
5-HT2A = 5-HT2A (Homo sapiens (Human), UniProt P28223); test: 5-HT2A binding assay ([3H]-Ketanserin, HEK293 stable cell line membranes); conditions: Table F, class symbols
Experimental: H1 and 5-HT2A Binding Assay Protocol
The testing compounds were diluted with DMSO, starting at 2 mM, with 8-points and 5-fold serial dilutions. Ketanserin and Pyrilamine were diluted with DMSO, starting at 0.2 mM, with 8-points and 5-fold serial dilution.
1 μl of a compounds of the present disclosure and either reference compound (Table C) were transferred to assay plates. 1 μl of 0.2 mM Ketanserin or Pyrilamine was transferred to an assay plate according to the plate map for nonspecific binding (Low control: LC). 1 μl of DMSO was transferred to an assay plate according to plate map for total binding (High control: HC).
100 μlof membrane stocks were dispensed into the plates, following the plate map. 100 of radio ligand was added. The plates were sealed and shaken at 300 rpm at room temperature for 1 hour. The Unifilter-96 GF/C filter plates were soaked with 50 of 0.3% PEI per well for at least 0.5 hour at room temperature.
When the binding assays were complete, the reaction mixture was filtered through GF/C plates using Perkin Elmer Filtermate Harvester, and then each plate was washed 4 times with cold wash buffer. The filter plates were dried for 1 hour at 50 degrees. After drying, the bottom of the filter plate wells were sealed using Perkin Elmer Unifilter-96 backing seal tape. 50 μl of Perkin Elmer Microscint 20 cocktail was added. The top of the filter plates were sealed with Perkin Elmer TopSeal-A sealing film.
^3H trapped on filters were counted using Perkin Elmer MicroBeta2 Reader. Inhibition constants were calculated using the following equation:
[formula] The data was analyzed using Prism 5. The model used was “log(inhibitor) vs. response—Variable slope” to fit the data and calculate IC50. The IC50 was then converted to Ki using following equation: Ki=IC50/(1+L/Kd). L is the radioligand concentration in the reaction system; Kd is the affinity of radioligand to the receptor.

Sequence of 5-HT2C (P28335 33-458): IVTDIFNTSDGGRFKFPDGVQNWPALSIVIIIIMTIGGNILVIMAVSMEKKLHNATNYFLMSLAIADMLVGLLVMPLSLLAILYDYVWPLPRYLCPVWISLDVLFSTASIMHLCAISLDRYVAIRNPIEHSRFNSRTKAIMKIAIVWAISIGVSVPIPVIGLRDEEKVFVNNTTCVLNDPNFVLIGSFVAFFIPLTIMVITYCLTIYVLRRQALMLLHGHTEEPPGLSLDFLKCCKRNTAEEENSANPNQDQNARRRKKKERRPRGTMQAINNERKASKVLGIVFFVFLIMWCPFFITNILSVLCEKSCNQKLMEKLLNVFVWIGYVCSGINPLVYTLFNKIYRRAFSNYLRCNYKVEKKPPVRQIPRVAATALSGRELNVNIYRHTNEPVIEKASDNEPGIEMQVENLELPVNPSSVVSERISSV
Sequence of 5-HT2A (P28223 whole entry, species assumed): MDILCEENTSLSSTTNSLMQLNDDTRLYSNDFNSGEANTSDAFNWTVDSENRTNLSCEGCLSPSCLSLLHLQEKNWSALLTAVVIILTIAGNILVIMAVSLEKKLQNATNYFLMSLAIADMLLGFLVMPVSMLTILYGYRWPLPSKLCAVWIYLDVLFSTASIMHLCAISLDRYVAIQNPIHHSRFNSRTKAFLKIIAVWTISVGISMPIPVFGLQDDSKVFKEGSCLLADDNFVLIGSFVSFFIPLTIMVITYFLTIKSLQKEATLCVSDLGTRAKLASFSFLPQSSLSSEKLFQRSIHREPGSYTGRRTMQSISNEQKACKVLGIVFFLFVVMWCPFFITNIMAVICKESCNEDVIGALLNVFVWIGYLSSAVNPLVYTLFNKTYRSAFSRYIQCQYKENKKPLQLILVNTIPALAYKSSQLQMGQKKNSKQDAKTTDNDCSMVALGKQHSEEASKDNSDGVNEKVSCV

With `Cc1ccc2c(c1)Oc1cc(C)ccc1C(N1CCN(CC(C)(C)C(=O)O)CC1)=N2` [Compound No. 7, 3-(4-(3,7-dimethyldibenzo[b,f][1,4]oxazepin-11-yl)piperazin-1-yl)-2,2-dimethylpropanoic acid] the “T1/2 (h), projected human half-life” value ([1]; one-compartmental model, T1/2=0.693×(predicted Vd/predicted CL)) was 4 to 8 h, the “CL (mL/min/kg), projected human clearance” value ([1]; single species scaling from monkey clearance) was 1.3 mL/min/kg and the Ki (5-HT2C) was over 500 nM. The Ki (5-HT2C; numeric values) was 2220 nM and the Ki (5-HT2A) was 1 to 25 nM.
